For 25 compounds, Activity and ED50 results are on record in ChEMBL document CHEMBL3244027, “Syntheses, analgetic activity, and physical dependence capacity of 5-phenyl-6,7-benzomorphan derivatives” (J Med Chem, 1979).

The source made the active and inactive calls. The rule behind the calls is not given here.

For assay [1], the system named is Mus musculus. In words: Analgetic activity against CF-1 mouse assessed as increase in reaction time at 1.2 mg/kg, po by heat stimulus induced tail flick response assay. The class given is functional, organism-based. More on the design: dose 1.2 mg/kg.
The test system of assay [2] is Mus musculus. The assay can be described thus: Analgetic activity against CF-1 mouse assessed as increase in reaction time at 5 mg/kg, sc by heat stimulus induced tail flick response assay. More on the design: dose 5 mg/kg. The class given is functional, organism-based.
Assay [3] concerns Mus musculus. The assay can be described thus: Analgetic activity against CF-1 mouse assessed as increase in reaction time at 1.2 mg/kg, sc by heat stimulus induced tail flick response assay. Format: functional, organism-based. More on the design: dose 1.2 mg/kg.
Assay [4] concerns Mus musculus. The assay can be described thus: Analgetic activity against CF-1 mouse assessed as increase in reaction time at 10 mg/kg, po by heat stimulus induced tail flick response assay. Further details: dose 10 mg/kg. Format: functional, organism-based.
The subject of assay [5] is Mus musculus. In words: Analgetic activity against CF-1 mouse assessed as increase in reaction time at 100 mg/kg, po by heat stimulus induced tail flick response assay. Format: functional, organism-based. Further details: dose 100 mg/kg.
For assay [6], the system named is Mus musculus. In words: Analgetic activity in sc dosed CF1S mouse assessed as writhing by phenylquinone writhing test. Format: functional. The following applies: Mus musculus, CF1S, sc; read-out: ED50. On the technique in general: In writhing tests, fewer writhes than in controls are read as antinociception.
The species named for assay [7] is Mus musculus. In words: Analgetic activity in nalorphine challenged mouse assessed as frequency pretreated for 2 day by mouse jumping test. The class given is functional, organism-based.
Assay [8] deals with Mus musculus. In words: Analgetic activity against CF-1 mouse assessed as increase in reaction time at 20 mg/kg, po by heat stimulus induced tail flick response assay. The class given is functional, organism-based. More on the design: dose 20 mg/kg.
The test system of assay [9] is Mus musculus. The assay can be described thus: Analgetic activity against CF-1 mouse assessed as increase in reaction time at 50 mg/kg, sc by heat stimulus induced tail flick response assay. The class given is functional, organism-based. More on the design: dose 50 mg/kg.
Assay [10] has as its system Mus musculus. The assay can be described thus: Analgetic activity against CF-1 mouse assessed as increase in reaction time at 20 mg/kg, sc by heat stimulus induced tail flick response assay. The class given is functional, organism-based. More on the design: dose 20 mg/kg.
For assay [11], the system named is Mus musculus. The assay can be described thus: Analgetic activity against CF-1 mouse assessed as increase in reaction time at 30 mg/kg, sc by heat stimulus induced tail flick response assay. Format: functional, organism-based. More on the design: dose 30 mg/kg.
Assay [12] relates to Mus musculus. The assay can be described thus: Analgetic activity against CF-1 mouse assessed as increase in reaction time at 320 mg/kg, po by heat stimulus induced tail flick response assay. The class given is functional, organism-based. Further details: dose 320 mg/kg.
Assay [13] relates to Mus musculus. The assay can be described thus: Analgetic activity against CF-1 mouse assessed as increase in reaction time at 40 mg/kg, po by heat stimulus induced tail flick response assay. Further details: dose 40 mg/kg. Format: functional, organism-based.
The subject of assay [14] is Mus musculus. The assay can be described thus: Analgetic activity against CF-1 mouse assessed as increase in reaction time at 80 mg/kg, po by heat stimulus induced tail flick response assay. The class given is functional, organism-based. Further details: dose 80 mg/kg.
Assay [15] has as its system Mus musculus. In words: Analgetic activity against CF-1 mouse assessed as increase in reaction time at 2.5 mg/kg, sc by heat stimulus induced tail flick response assay. The class given is functional, organism-based. Further details: dose 2.5 mg/kg.
For assay [16], the system named is Mus musculus. The assay can be described thus: Analgetic activity against CF-1 mouse assessed as increase in reaction time at 60 mg/kg, po by heat stimulus induced tail flick response assay. More on the design: dose 60 mg/kg. The class given is functional, organism-based.
The subject of assay [17] is Mus musculus. In words: Analgetic activity against CF-1 mouse assessed as increase in reaction time at 1.5 mg/kg, sc by heat stimulus induced tail flick response assay. Format: functional, organism-based. Further details: dose 1.5 mg/kg.
Assay [18] has as its system Mus musculus. In words: Analgetic activity against CF-1 mouse assessed as increase in reaction time at 4 mg/kg, sc by heat stimulus induced tail flick response assay. Format: functional, organism-based. Further details: dose 4 mg/kg.
Assay [19] has as its system Mus musculus. The assay can be described thus: Analgetic activity against CF-1 mouse assessed as increase in reaction time at 40 mg/kg, sc by heat stimulus induced tail flick response assay. Format: functional, organism-based. More on the design: dose 40 mg/kg.
For assay [20], the system named is Mus musculus. In words: Analgetic activity against CF-1 mouse assessed as increase in reaction time at 80 mg/kg, sc by heat stimulus induced tail flick response assay. The class given is functional, organism-based. Further details: dose 80 mg/kg.
Assay [21] is filed under the species Mus musculus. In words: Analgetic activity in naloxone challenged mouse assessed as frequency pretreated for 2 day by mouse jumping test. Format: functional, organism-based.

`CC1C2Cc3ccc(OC(=O)c4ccc(Br)cc4)cc3C1(c1ccccc1)CCN2C` (stereo not given): the outcome in assay [1] and in assay [2] was Active. For `CCCCCN1CCC2(c3ccccc3)c3cc(O)ccc3CC1C2C` (racemic), the result in [2] was Active. Turning to `CC1C2Cc3ccc(O)cc3C1(c1ccccc1)CCN2CCc1ccc(N)cc1` (stereo not given), the result in assay [3] and in assay [4] was Active. `CC1C2Cc3ccc(O)cc3C1(c1ccccc1)CCN2C` (racemic): the outcome in [2] and in [4] was Active. As to `CC(=O)Oc1ccc2c(c1)C1(c3ccc(Cl)cc3)CCN(C#N)C(C2)C1` (racemic), the result in assay [5] was inactive. For the same compound, the ED50 in assay [6] was over 100 mg/kg. For `CC(=O)N1CCC2(c3ccccc3)CC1Cc1ccc(O)cc12` (racemic) the same measures were “inactive” and over 100 mg/kg.

Consider `CC1C2Cc3ccc(OC(=O)c4cccc([N+](=O)[O-])c4)cc3C1(c1ccccc1)CCN2C` (stereo not given), for which the outcome in [7] and in assay [3] was Active. With `COCOc1ccc2c(c1)C1(c3ccccc3)CCN(C)C(C2)C1C` (stereo not given), the result in assay [2] and in [8] was Active. In the case of `CN(C)C(=O)CCN1CCC2(c3ccccc3)CC1Cc1ccc(O)cc12` (racemic), the outcome in [9] was inactive. Turning to `CN1CCC2(c3ccccc3)CC1Cc1ccccc12` (stereo in doubt; 36), in assay [7], the outcome was inactive. Besides, the outcome in assay [10] was Active. Regarding `CC1C2Cc3ccc(OC(=O)c4cccc(Cl)c4)cc3C1(c1ccccc1)CCN2C` (stereo not given), the result in assay [3] was Active. Consider `COc1ccc2c(c1)C1(c3ccccc3)CCN(C)C(C2)C1` (stereo not given), for which the outcome in assay [11] and in [12] was inactive. Take `CC1C2Cc3ccc(O)cc3C1(c1ccccc1)CCN2CCc1ccccc1` (racemic): the outcome in [13] and in [10] was Active. Turning to `CC1C2Cc3ccc(O)cc3C1(c1ccccc1)CCN2CCC(C#N)(c1ccccc1)c1ccccc1` (stereo in doubt; 189), the result in [7] and in assay [12] was inactive. In the case of `CC1C2Cc3ccc(OC(=O)c4ccccc4F)cc3C1(c1ccccc1)CCN2C` (stereo not given), the outcome in [7] was Active. Also, in [6], the ED50 amounted to 0.5 mg/kg. Take `COc1cc(CC2C=C(c3ccccc3)CCN2C)cc(OC)c1OC` (stereo not given): in [14], the result was Active.

For `CCC(=O)Oc1ccc2c(c1)C1(c3ccccc3)CCN(C)C(C2)C1C` (stereo not given), the outcome in [15] was Active. As for `CC1C2Cc3ccc(OC(=O)c4ccco4)cc3C1(c1ccccc1)CCN2C(=O)c1ccco1` (stereo not given), in assay [16], the result was inactive. For the compound `CCCCC(=O)Oc1ccc2c(c1)C1(c3ccccc3)CCN(C)C(C2)C1C` (stereo not given), the outcome in [17] and in [4] was Active. As to `CCN1CCC2(c3ccccc3)CC1Cc1ccc(O)cc12` (racemic), in [11], the result was inactive. Further, in assay [6], the ED50 was over 30 mg/kg.

Take `CCCCCN1CCC2(c3ccccc3)c3cc(OC(C)=O)ccc3CC1C2C` (stereo not given): the result in [2] and in [13] was Active.

In the case of `O=C(Oc1ccc2c(c1)C1(c3ccccc3)CCN(C(=O)C3CC3)C(C2)C1)C1CC1` (racemic), in assay [6], the ED50 was over 100 mg/kg. Besides, the outcome in assay [16] was inactive. Take `CC(=O)Oc1ccc2c(c1)C1(c3ccccc3)CCN(C)C(C2)C1C` (stereo not given): the outcome in [18] and in [4] was Active. Turning to `COc1ccc2c(c1)C1(c3ccccc3)CCN(C)C(C2)C1C` (stereo not given), the outcome in [19], in assay [20] and in [8] was Active. As to `Oc1ccc2c(c1)C1(c3ccccc3)CCN(CCc3ccccc3)C(C2)C1` (stereo not given), the outcome in [14] and in assay [21] was Active.

In general, ED50 refers to the dose that gives a 50% effect, or the effect in half of the subjects.
